Laboratory results published in PubChem BioAssay AID1963837 (Molecular Pharmacology Branch, DTP, NCI, 2024).

Tested on: 843126-344-R-J1-PDC complex spheroid viability
Test: Anticancer human tumor 843126-344-R-J1-PDC patient-derived melanoma cell line growth inhibition [POLQ]
Conditions: second compound 3.16 µM; first compound 0.0316 µM; hits give low values
Summary of the method: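 Growth inhibition in 3D: complex spheroids (tumor PDC, HUVEC, MSC) treated with POLQ inhibitor combinations; where Cmax unknown, highest tested concentration 10 microM, except SN-38 at 1 microM.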
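Also: spheroids exposed to drugs for seven days before readout.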

Row | SMILES | viability, T/C [%]
1 | Cn1ncnc1[C@H]1c2n[nH]c(=O)c3cc(F)cc(c23)N[C@@H]1c1ccc(F)cc1 + COC1C(OC(N)=O)C(O)C(Oc2ccc3c(O)c(NC(=O)c4ccc(O)c(CC=C(C)C)c4)c(=O)oc3c2C)OC1(C)C | 120
2 | CC1COCCN1c1cc(-c2ccnn2C)c2ccnc(-c3ccn[nH]3)c2n1 (stereo unspecified) + COC1C(OC(N)=O)C(O)C(Oc2ccc3c(O)c(NC(=O)c4ccc(O)c(CC=C(C)C)c4)c(=O)oc3c2C)OC1(C)C | 73.3
3 | COc1ccc([C@@H](O)c2cc(-c3ncnc4cc(N5CCOCC5)ccc34)c(F)cc2Cl)nn1 + Nc1ccc(C#CCN(C(=O)Cc2ncc(C(F)(F)F)cc2C(F)(F)F)c2ccc(F)cc2)nn1 | 100

Same assay, conditions: second compound 3.16 µM; first compound 0.1 µM; hits give low values

Row | SMILES | viability, T/C [%]
4 | COc1cc(C2c3cc4c(cc3C(OC3OC5COC(C)OC5C(O)C3O)C3COC(=O)C23)OCO4)cc(OC)c1O (stereo unspecified) + Cc1cccc(N(C)C(=O)C2C(O)CCN2c2nc(C)cc(C(F)(F)F)c2C#N)c1 | 79.7
5 | COc1cccc(OCCCN)c1-c1cc(Nc2cnc(C#N)cn2)n[nH]1 + COC1C(OC(N)=O)C(O)C(Oc2ccc3c(O)c(NC(=O)c4ccc(O)c(CC=C(C)C)c4)c(=O)oc3c2C)OC1(C)C | 68.2
6 | CC1COCCN1c1cc(C2(S(C)(=N)=O)CC2)nc(-c2ccnc3[nH]ccc23)n1 (stereo unspecified) + COC1C(OC(N)=O)C(O)C(Oc2ccc3c(O)c(NC(=O)c4ccc(O)c(CC=C(C)C)c4)c(=O)oc3c2C)OC1(C)C | 89.1
7 | Cn1ncnc1[C@H]1c2n[nH]c(=O)c3cc(F)cc(c23)N[C@@H]1c1ccc(F)cc1 + COC1C(OC(N)=O)C(O)C(Oc2ccc3c(O)c(NC(=O)c4ccc(O)c(CC=C(C)C)c4)c(=O)oc3c2C)OC1(C)C | 94.1
8 | CC1COCCN1c1cc(-c2ccnn2C)c2ccnc(-c3ccn[nH]3)c2n1 (stereo unspecified) + COC1C(OC(N)=O)C(O)C(Oc2ccc3c(O)c(NC(=O)c4ccc(O)c(CC=C(C)C)c4)c(=O)oc3c2C)OC1(C)C | 83
9 | COc1ccc([C@@H](O)c2cc(-c3ncnc4cc(N5CCOCC5)ccc34)c(F)cc2Cl)nn1 + Nc1ccc(C#CCN(C(=O)Cc2ncc(C(F)(F)F)cc2C(F)(F)F)c2ccc(F)cc2)nn1 | 99.3

Same assay, conditions: second compound 3.16 µM; first compound 0.316 µM; hits give low values

Row | SMILES | viability, T/C [%]
10 | COc1cc(C2c3cc4c(cc3C(OC3OC5COC(C)OC5C(O)C3O)C3COC(=O)C23)OCO4)cc(OC)c1O (stereo unspecified) + Cc1cccc(N(C)C(=O)C2C(O)CCN2c2nc(C)cc(C(F)(F)F)c2C#N)c1 | 84.4
11 | COc1cccc(OCCCN)c1-c1cc(Nc2cnc(C#N)cn2)n[nH]1 + COC1C(OC(N)=O)C(O)C(Oc2ccc3c(O)c(NC(=O)c4ccc(O)c(CC=C(C)C)c4)c(=O)oc3c2C)OC1(C)C | 49.4
12 | CC1COCCN1c1cc(C2(S(C)(=N)=O)CC2)nc(-c2ccnc3[nH]ccc23)n1 (stereo unspecified) + COC1C(OC(N)=O)C(O)C(Oc2ccc3c(O)c(NC(=O)c4ccc(O)c(CC=C(C)C)c4)c(=O)oc3c2C)OC1(C)C | 89
13 | CC1COCCN1c1cc(-c2ccnn2C)c2ccnc(-c3ccn[nH]3)c2n1 (stereo unspecified) + COC1C(OC(N)=O)C(O)C(Oc2ccc3c(O)c(NC(=O)c4ccc(O)c(CC=C(C)C)c4)c(=O)oc3c2C)OC1(C)C | 58.5
14 | COc1ccc([C@@H](O)c2cc(-c3ncnc4cc(N5CCOCC5)ccc34)c(F)cc2Cl)nn1 + Nc1ccc(C#CCN(C(=O)Cc2ncc(C(F)(F)F)cc2C(F)(F)F)c2ccc(F)cc2)nn1 | 92

Same assay, conditions: second compound 3.16 µM; first compound 1 µM; hits give low values

Row | SMILES | viability, T/C [%]
15 | COc1cc(C2c3cc4c(cc3C(OC3OC5COC(C)OC5C(O)C3O)C3COC(=O)C23)OCO4)cc(OC)c1O (stereo unspecified) + Cc1cccc(N(C)C(=O)C2C(O)CCN2c2nc(C)cc(C(F)(F)F)c2C#N)c1 | 75.9
16 | COc1cccc(OCCCN)c1-c1cc(Nc2cnc(C#N)cn2)n[nH]1 + COC1C(OC(N)=O)C(O)C(Oc2ccc3c(O)c(NC(=O)c4ccc(O)c(CC=C(C)C)c4)c(=O)oc3c2C)OC1(C)C | 31.8
17 | CC1COCCN1c1cc(C2(S(C)(=N)=O)CC2)nc(-c2ccnc3[nH]ccc23)n1 (stereo unspecified) + COC1C(OC(N)=O)C(O)C(Oc2ccc3c(O)c(NC(=O)c4ccc(O)c(CC=C(C)C)c4)c(=O)oc3c2C)OC1(C)C | 79.5
18 | CC1COCCN1c1cc(-c2ccnn2C)c2ccnc(-c3ccn[nH]3)c2n1 (stereo unspecified) + COC1C(OC(N)=O)C(O)C(Oc2ccc3c(O)c(NC(=O)c4ccc(O)c(CC=C(C)C)c4)c(=O)oc3c2C)OC1(C)C | 45.9
19 | COc1ccc([C@@H](O)c2cc(-c3ncnc4cc(N5CCOCC5)ccc34)c(F)cc2Cl)nn1 + Nc1ccc(C#CCN(C(=O)Cc2ncc(C(F)(F)F)cc2C(F)(F)F)c2ccc(F)cc2)nn1 | 73.6

Same assay, conditions: second compound 3.16 µM; first compound 3.16 µM; hits give low values

Row | SMILES | viability, T/C [%]
20 | COc1cc(C2c3cc4c(cc3C(OC3OC5COC(C)OC5C(O)C3O)C3COC(=O)C23)OCO4)cc(OC)c1O (stereo unspecified) + Cc1cccc(N(C)C(=O)C2C(O)CCN2c2nc(C)cc(C(F)(F)F)c2C#N)c1 | 54.2
21 | CC1COCCN1c1cc(C2(S(C)(=N)=O)CC2)nc(-c2ccnc3[nH]ccc23)n1 (stereo unspecified) + COC1C(OC(N)=O)C(O)C(Oc2ccc3c(O)c(NC(=O)c4ccc(O)c(CC=C(C)C)c4)c(=O)oc3c2C)OC1(C)C | 74
22 | CC1COCCN1c1cc(-c2ccnn2C)c2ccnc(-c3ccn[nH]3)c2n1 (stereo unspecified) + COC1C(OC(N)=O)C(O)C(Oc2ccc3c(O)c(NC(=O)c4ccc(O)c(CC=C(C)C)c4)c(=O)oc3c2C)OC1(C)C | 42.1
23 | COc1ccc([C@@H](O)c2cc(-c3ncnc4cc(N5CCOCC5)ccc34)c(F)cc2Cl)nn1 + Nc1ccc(C#CCN(C(=O)Cc2ncc(C(F)(F)F)cc2C(F)(F)F)c2ccc(F)cc2)nn1 | 77.8

Same assay, conditions: second compound 3.16 µM; first compound 10 µM; hits give low values

Row | SMILES | viability, T/C [%]
24 | COc1cc(C2c3cc4c(cc3C(OC3OC5COC(C)OC5C(O)C3O)C3COC(=O)C23)OCO4)cc(OC)c1O (stereo unspecified) + Cc1cccc(N(C)C(=O)C2C(O)CCN2c2nc(C)cc(C(F)(F)F)c2C#N)c1 | 45.5
25 | CC1COCCN1c1cc(C2(S(C)(=N)=O)CC2)nc(-c2ccnc3[nH]ccc23)n1 (stereo unspecified) + COC1C(OC(N)=O)C(O)C(Oc2ccc3c(O)c(NC(=O)c4ccc(O)c(CC=C(C)C)c4)c(=O)oc3c2C)OC1(C)C | 48
26 | CC1COCCN1c1cc(-c2ccnn2C)c2ccnc(-c3ccn[nH]3)c2n1 (stereo unspecified) + COC1C(OC(N)=O)C(O)C(Oc2ccc3c(O)c(NC(=O)c4ccc(O)c(CC=C(C)C)c4)c(=O)oc3c2C)OC1(C)C | 25
27 | COc1ccc([C@@H](O)c2cc(-c3ncnc4cc(N5CCOCC5)ccc34)c(F)cc2Cl)nn1 + Nc1ccc(C#CCN(C(=O)Cc2ncc(C(F)(F)F)cc2C(F)(F)F)c2ccc(F)cc2)nn1 | 64.6

Same assay, conditions: second compound 10 µM; first compound 0.000316 µM; hits give low values

Row | SMILES | viability, T/C [%]
28 | Cn1ncnc1[C@H]1c2n[nH]c(=O)c3cc(F)cc(c23)N[C@@H]1c1ccc(F)cc1 + COC1C(OC(N)=O)C(O)C(Oc2ccc3c(O)c(NC(=O)c4ccc(O)c(CC=C(C)C)c4)c(=O)oc3c2C)OC1(C)C | 83.9

Same assay, conditions: second compound 10 µM; first compound 0.001 µM; hits give low values

Row | SMILES | viability, T/C [%]
29 | Cn1ncnc1[C@H]1c2n[nH]c(=O)c3cc(F)cc(c23)N[C@@H]1c1ccc(F)cc1 + COC1C(OC(N)=O)C(O)C(Oc2ccc3c(O)c(NC(=O)c4ccc(O)c(CC=C(C)C)c4)c(=O)oc3c2C)OC1(C)C | 102

Same assay, conditions: second compound 10 µM; first compound 0.00316 µM; hits give low values

Row | SMILES | viability, T/C [%]
30 | COc1cccc(OCCCN)c1-c1cc(Nc2cnc(C#N)cn2)n[nH]1 + COC1C(OC(N)=O)C(O)C(Oc2ccc3c(O)c(NC(=O)c4ccc(O)c(CC=C(C)C)c4)c(=O)oc3c2C)OC1(C)C | 72.7
31 | Cn1ncnc1[C@H]1c2n[nH]c(=O)c3cc(F)cc(c23)N[C@@H]1c1ccc(F)cc1 + COC1C(OC(N)=O)C(O)C(Oc2ccc3c(O)c(NC(=O)c4ccc(O)c(CC=C(C)C)c4)c(=O)oc3c2C)OC1(C)C | 101
